From ChEMBL document CHEMBL1201862, “PubChem BioAssay data set” (2004)
Calls of active or inactive are those of the source.

system: Streptococcus sp. 'group A'; experiment: Streptococcus pyogenes SK(-)GAS viability under kanamycin – luminescence, BacTiterGlo, confirmation, counter-screen for streptokinase expression inhibitor project, dose response (AID 1900); format: functional, organism-based; conditions: not given

| Compound | EC50 |
| --- | --- |
| COc1ccc(-c2oc3cccnc3c2C#CC2(O)CCCCC2)cc1 | 7.18 µM (active) |

target: T1, Streptokinase A (Streptococcus pyogenes serotype M1, UniProt P10520); experiment: viability-normalized secreted streptokinase activity reduction – plasminogen activation absorbance, OD405, dose response (AID 1914); format: functional, Streptococcus pyogenes M1 GAS; conditions: not given;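 note: secreted streptokinase activity via plasminogen activation per viability signal from cell pellet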
T1 sequence (P10520 whole entry): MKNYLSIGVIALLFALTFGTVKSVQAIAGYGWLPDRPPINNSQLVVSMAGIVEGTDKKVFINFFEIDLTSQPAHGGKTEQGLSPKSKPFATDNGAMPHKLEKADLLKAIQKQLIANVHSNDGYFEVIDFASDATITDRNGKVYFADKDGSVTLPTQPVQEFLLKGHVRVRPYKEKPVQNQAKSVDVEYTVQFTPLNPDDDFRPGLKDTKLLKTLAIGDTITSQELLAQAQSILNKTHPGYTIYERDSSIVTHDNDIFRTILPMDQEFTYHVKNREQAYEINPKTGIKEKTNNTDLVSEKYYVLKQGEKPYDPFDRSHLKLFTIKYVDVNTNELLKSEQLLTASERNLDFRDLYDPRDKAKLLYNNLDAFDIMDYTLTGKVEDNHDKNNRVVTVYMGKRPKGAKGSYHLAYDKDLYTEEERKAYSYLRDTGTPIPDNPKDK

| Compound | EC50 |
| --- | --- |
| COc1ccc(-c2oc3cccnc3c2C#CC2(O)CCCCC2)cc1 | > 150 µM (not active) |

system: Streptococcus; experiment: GAS UMAA2166 growth inhibition – luminescence, BacTiterGlo, counter-screen for streptokinase expression inhibitor project, dose response (AID 1915); format: functional, organism-based; conditions: not given;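 note: potency for reduction of bacterial viability or growth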

| Compound | EC50 |
| --- | --- |
| COc1ccc(-c2oc3cccnc3c2C#CC2(O)CCCCC2)cc1 | 11.1 µM (active) |

target: T2, Replicative DNA helicase DnaB (Mycobacterium tuberculosis, UniProt P9WMR3); experiment: DnaB intein splicing inhibitors, dose response, biochemical, cell-free fluorescence (AID 449749); format: functional; conditions: not given
T2 sequence (P9WMR3 whole entry): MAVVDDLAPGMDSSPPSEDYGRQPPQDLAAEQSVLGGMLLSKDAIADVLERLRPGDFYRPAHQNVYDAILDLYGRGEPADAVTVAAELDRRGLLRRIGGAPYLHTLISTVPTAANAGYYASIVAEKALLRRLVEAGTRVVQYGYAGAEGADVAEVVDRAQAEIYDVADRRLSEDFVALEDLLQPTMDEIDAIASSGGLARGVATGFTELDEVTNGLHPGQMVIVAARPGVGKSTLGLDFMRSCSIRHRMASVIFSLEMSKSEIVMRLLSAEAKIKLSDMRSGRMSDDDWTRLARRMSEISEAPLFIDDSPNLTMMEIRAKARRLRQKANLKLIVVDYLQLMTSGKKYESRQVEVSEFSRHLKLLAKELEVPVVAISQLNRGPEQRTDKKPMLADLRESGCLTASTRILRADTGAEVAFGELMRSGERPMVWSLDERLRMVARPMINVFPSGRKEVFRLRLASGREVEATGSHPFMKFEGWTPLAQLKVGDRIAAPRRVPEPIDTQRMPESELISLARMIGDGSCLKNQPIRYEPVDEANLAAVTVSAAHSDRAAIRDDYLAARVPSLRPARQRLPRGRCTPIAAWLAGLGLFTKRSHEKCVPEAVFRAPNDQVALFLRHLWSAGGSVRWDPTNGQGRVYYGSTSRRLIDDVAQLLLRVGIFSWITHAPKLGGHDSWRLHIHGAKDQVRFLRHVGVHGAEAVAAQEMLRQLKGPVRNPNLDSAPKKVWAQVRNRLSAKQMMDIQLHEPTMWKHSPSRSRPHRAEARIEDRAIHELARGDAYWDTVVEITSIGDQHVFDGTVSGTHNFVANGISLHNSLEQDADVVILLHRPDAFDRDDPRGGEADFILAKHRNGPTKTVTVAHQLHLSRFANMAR

| Compound | AC50 |
| --- | --- |
| Cc1ccc(S(=O)(=O)Oc2ccc(C(c3c(C)n[nH]c3O)c3c(C)n[nH]c3O)cc2)cc1 | 7.06 µM (active) |
| COc1ccc(-c2[nH]nc3c2C(c2ccoc2)C(C#N)=C(N)O3)cc1 (centres undefined) | 1.39 µM (active) |
| CCCc1n[nH]c2c1C(c1ccsc1)C(C#N)=C(N)O2 (centres undefined) | 16.5 µM (active) |
| Cc1ccc(NC(=O)c2sc3ncnc(N4CCN(c5ccccn5)CC4)c3c2C)c(C)c1 | 15.7 µM (active) |
| O=C1/C(=C/c2ccc3c(c2)OCO3)CCC/C1=C\c1ccc2c(c1)OCO2 | > 380 µM (inactive) |
| N#CC1=C(N)N(c2ccccc2)C(c2cccc([N+](=O)[O-])c2)C1(C#N)C#N (centres undefined) | 5.73 µM (active) |
| CC(=O)Oc1ccc(N(C(C)=O)S(=O)(=O)c2ccc3ccccc3c2)cc1Br | 9.4 µM (active) |
| Cc1[nH]n(-c2ccccc2)c(=O)c1C=C1C(=O)NC(=O)NC1=O | 16.8 µM (active) |
| O=C(c1ccc2nc(Cc3cccc(Cl)c3)oc2c1)N1CCC(O)CC1 | 357 µM (active) |
| CCCc1n[nH]c2c1C(c1cc(OC)cc(OC)c1)C(C#N)=C(N)O2 (centres undefined) | 1.27 µM (active) |

target: T3, Protein RecA (Mycobacterium tuberculosis, UniProt P9WHJ3); experiment: Fluorescence Cell-Free Homogeneous Dose Retest to Identify Inhibitors of RecA-Intein Splicing Activity. [Related pubchem assays (depositor defined):AID2097, AID2223, AID489010, AID492950]; format: functional; conditions: not given
T3 sequence (P9WHJ3 whole entry): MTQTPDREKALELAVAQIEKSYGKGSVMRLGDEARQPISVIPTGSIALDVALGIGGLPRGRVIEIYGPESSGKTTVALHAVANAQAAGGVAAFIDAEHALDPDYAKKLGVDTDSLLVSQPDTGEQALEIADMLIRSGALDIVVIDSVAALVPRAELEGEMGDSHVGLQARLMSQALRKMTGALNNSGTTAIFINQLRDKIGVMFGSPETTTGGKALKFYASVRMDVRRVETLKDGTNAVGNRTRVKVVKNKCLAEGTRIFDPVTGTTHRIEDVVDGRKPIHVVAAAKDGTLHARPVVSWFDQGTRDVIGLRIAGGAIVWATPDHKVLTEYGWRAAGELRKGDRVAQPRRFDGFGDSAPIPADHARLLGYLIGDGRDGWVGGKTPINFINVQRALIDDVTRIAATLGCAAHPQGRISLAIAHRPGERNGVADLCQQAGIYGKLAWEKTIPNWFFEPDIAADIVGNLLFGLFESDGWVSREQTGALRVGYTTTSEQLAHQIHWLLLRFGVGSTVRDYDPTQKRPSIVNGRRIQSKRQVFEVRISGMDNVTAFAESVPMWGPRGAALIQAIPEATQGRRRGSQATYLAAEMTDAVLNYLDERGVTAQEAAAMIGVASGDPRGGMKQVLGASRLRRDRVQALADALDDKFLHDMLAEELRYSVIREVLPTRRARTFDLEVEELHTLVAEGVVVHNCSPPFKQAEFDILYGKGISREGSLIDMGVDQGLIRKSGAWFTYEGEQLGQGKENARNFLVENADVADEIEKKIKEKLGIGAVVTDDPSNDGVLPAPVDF

| Compound | EC50 |
| --- | --- |
| Cc1ccc(S(=O)(=O)Oc2ccc(C(c3c(C)n[nH]c3O)c3c(C)n[nH]c3O)cc2)cc1 | 46.2 µM (active) |
| COc1ccc(-c2[nH]nc3c2C(c2ccoc2)C(C#N)=C(N)O3)cc1 (centres undefined) | 0.548 µM (active) |
| CCCc1n[nH]c2c1C(c1ccsc1)C(C#N)=C(N)O2 (centres undefined) | 2.28 µM (active) |
| Cc1ccc(NC(=O)c2sc3ncnc(N4CCN(c5ccccn5)CC4)c3c2C)c(C)c1 | > 380 µM (inactive) |
| O=C1/C(=C/c2ccc3c(c2)OCO3)CCC/C1=C\c1ccc2c(c1)OCO2 | > 380 µM (inactive) |
| N#CC1=C(N)N(c2ccccc2)C(c2cccc([N+](=O)[O-])c2)C1(C#N)C#N (centres undefined) | 12.8 µM (active) |
| CC(=O)Oc1ccc(N(C(C)=O)S(=O)(=O)c2ccc3ccccc3c2)cc1Br | 17.3 µM (active) |
| Cc1[nH]n(-c2ccccc2)c(=O)c1C=C1C(=O)NC(=O)NC1=O | 7.39 µM (active) |
| O=C(c1ccc2nc(Cc3cccc(Cl)c3)oc2c1)N1CCC(O)CC1 | > 380 µM (inactive) |
| CCCc1n[nH]c2c1C(c1cc(OC)cc(OC)c1)C(C#N)=C(N)O2 (centres undefined) | 1.51 µM (active) |

target: T4, Corticotropin-releasing factor receptor 2/Corticotropin-releasing factor-binding protein (Homo sapiens, UniProt P24387+Q13324); experiment: activators of CRF receptor 2 with binding protein – uHTS hits, confirmation (AID 602473); format: functional; conditions: read-out: EC50_Mean
T4 sequence (Q13324 whole entry): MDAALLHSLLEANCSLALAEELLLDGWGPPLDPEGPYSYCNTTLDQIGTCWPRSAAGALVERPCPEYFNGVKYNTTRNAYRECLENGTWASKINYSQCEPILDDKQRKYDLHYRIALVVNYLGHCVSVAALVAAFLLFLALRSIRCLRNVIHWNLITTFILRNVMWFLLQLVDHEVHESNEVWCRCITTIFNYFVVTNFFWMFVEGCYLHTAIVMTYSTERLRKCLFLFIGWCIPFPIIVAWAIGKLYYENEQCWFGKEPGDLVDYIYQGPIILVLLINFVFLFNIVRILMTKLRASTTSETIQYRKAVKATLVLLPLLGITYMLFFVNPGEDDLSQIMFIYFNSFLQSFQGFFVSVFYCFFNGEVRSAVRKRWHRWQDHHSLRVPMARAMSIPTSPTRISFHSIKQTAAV
T4 sequence (P24387 whole entry): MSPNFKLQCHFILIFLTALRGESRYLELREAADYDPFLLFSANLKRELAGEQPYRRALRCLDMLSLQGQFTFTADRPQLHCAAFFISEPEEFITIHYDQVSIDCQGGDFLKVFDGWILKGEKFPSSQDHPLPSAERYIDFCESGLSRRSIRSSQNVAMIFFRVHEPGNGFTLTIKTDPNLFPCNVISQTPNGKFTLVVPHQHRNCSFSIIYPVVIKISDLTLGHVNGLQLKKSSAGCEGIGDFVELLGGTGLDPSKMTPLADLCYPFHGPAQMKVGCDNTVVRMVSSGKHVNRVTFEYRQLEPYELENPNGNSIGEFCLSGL

| Compound | EC50 |
| --- | --- |
| Cc1ccc(S(=O)(=O)Oc2ccc(C(c3c(C)n[nH]c3O)c3c(C)n[nH]c3O)cc2)cc1 | > 53 µM (inactive) |

target: Cytochrome P450 2D6 (Homo sapiens, UniProt P10635); conditions: not given;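 note: CYP2D6 member of a cytochrome P450 panel assay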
Sequence (P10635 whole entry): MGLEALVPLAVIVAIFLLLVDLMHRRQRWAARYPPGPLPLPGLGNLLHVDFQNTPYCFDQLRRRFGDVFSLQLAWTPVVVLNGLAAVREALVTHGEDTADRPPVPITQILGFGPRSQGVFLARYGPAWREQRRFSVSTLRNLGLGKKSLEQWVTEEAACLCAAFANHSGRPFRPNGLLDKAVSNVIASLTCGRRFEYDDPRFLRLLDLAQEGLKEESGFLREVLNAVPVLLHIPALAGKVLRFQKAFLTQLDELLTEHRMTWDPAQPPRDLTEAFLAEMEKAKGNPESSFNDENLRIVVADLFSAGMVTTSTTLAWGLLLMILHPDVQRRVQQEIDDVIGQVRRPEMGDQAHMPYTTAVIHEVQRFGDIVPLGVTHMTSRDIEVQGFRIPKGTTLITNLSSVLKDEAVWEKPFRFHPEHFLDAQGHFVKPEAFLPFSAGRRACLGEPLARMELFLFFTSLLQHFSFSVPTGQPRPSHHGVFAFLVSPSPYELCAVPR

| Compound | AC50 |
| --- | --- |
| N[C@@H]1C[C@H]1c1ccccc1.N[C@H]1C[C@@H]1c1ccccc1 [TRANYLCYPROMINE] | 31.6 µM (inconclusive) |

target: Cytochrome P450 2C9 (Homo sapiens, UniProt P11712); conditions: not given
Sequence (P11712 whole entry): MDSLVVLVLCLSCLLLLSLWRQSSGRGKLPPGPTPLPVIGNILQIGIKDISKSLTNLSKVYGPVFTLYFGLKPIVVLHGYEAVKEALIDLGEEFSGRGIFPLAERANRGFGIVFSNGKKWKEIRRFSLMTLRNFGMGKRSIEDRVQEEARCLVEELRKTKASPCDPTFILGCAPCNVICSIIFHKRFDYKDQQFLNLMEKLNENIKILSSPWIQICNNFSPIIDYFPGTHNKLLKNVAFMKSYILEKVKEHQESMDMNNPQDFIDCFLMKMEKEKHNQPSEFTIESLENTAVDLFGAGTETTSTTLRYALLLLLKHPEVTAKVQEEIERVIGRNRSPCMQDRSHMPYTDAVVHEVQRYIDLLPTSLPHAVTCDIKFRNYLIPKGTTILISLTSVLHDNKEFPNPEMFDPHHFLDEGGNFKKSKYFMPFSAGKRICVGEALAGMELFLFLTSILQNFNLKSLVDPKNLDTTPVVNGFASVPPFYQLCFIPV

| Compound | AC50 |
| --- | --- |
| Cc1nc2ccc(S(=O)(=O)NC(CC(C)C)C(=O)O)cc2s1 (centres undefined) | 12.6 µM (inconclusive) |
| c1ccc2c(CSCc3cccc4ccccc34)cccc2c1 | 3.16 µM (inconclusive) |
| O=C1C=C/C(=N/c2cccc3c(/N=C4\C=CC(=O)O4)cccc23)O1 | 6.31 µM (inconclusive) |
| N[C@@H]1C[C@H]1c1ccccc1.N[C@H]1C[C@@H]1c1ccccc1 [TRANYLCYPROMINE] | 39.8 µM (inconclusive) |
